Experimental data taken from BigSolDB 2.1.

CN(C)CCn1[nH]nnc1=S
Conditions | solubility (mole fraction)
in DMF, 293.45 K | 0.000803
in DMF, 298.34 K | 0.000875
in DMF, 303.35 K | 0.00105
in DMF, 308.38 K | 0.00122
in DMF, 313.25 K | 0.00146
in DMF, 318.22 K | 0.00179
in DMF, 323.2 K | 0.00212
in DMF, 328.12 K | 0.00253
in DMF, 333.3 K | 0.00297
in DMF, 338.22 K | 0.00335
in DMF, 345.15 K | 0.00393
in ethanol, 293.25 K | 5.34e-05
in ethanol, 298.15 K | 6.16e-05
in ethanol, 302.95 K | 7.31e-05
in ethanol, 308.1 K | 8.48e-05
in ethanol, 312.94 K | 9.91e-05
in ethanol, 318.15 K | 0.000118
in ethanol, 322.55 K | 0.000133
in ethanol, 327.45 K | 0.000156
in ethanol, 332.55 K | 0.000181
in ethanol, 338.05 K | 0.000206
in ethanol, 342.2 K | 0.000227
in isopropanol, 293.15 K | 3.47e-05
in isopropanol, 298.28 K | 4.15e-05
in isopropanol, 303.35 K | 4.8e-05
in isopropanol, 308.14 K | 5.43e-05
in isopropanol, 313.25 K | 6.15e-05
in isopropanol, 318.2 K | 6.96e-05
in isopropanol, 323.25 K | 7.96e-05
in isopropanol, 328.16 K | 9.09e-05
in isopropanol, 333.35 K | 0.000106
in isopropanol, 338.32 K | 0.000123
in isopropanol, 343.45 K | 0.000144
in methanol, 293.05 K | 0.000156
in methanol, 298.17 K | 0.000186
in methanol, 303.15 K | 0.000219
in methanol, 308.2 K | 0.000254
in methanol, 313.05 K | 0.000291
in methanol, 318.24 K | 0.000348
in methanol, 323.25 K | 0.000414
in methanol, 328.23 K | 0.000485
in methanol, 333.15 K | 0.000571
in n-butanol, 293.15 K | 6.11e-05
in n-butanol, 298.21 K | 6.93e-05
in n-butanol, 303.35 K | 7.66e-05
in n-butanol, 308.14 K | 8.49e-05
in n-butanol, 313.05 K | 9.47e-05
in n-butanol, 318.28 K | 0.000103
in n-butanol, 323 K | 0.000112
in n-butanol, 328.14 K | 0.000126
in n-butanol, 333.05 K | 0.000141
in n-butanol, 338.12 K | 0.000158
in n-butanol, 343.1 K | 0.000179
in n-propanol, 293.17 K | 5.79e-05
in n-propanol, 298.14 K | 7.34e-05
in n-propanol, 303.25 K | 8.52e-05
in n-propanol, 308.12 K | 0.000107
in n-propanol, 313.15 K | 0.000127
in n-propanol, 318.23 K | 0.00014
in n-propanol, 323.2 K | 0.000161
in n-propanol, 328.34 K | 0.000176
in n-propanol, 332.95 K | 0.000189
in n-propanol, 338.18 K | 0.000216
in n-propanol, 343.16 K | 0.000241
in sec-butanol, 293.35 K | 3.16e-05
in sec-butanol, 298.37 K | 3.49e-05
in sec-butanol, 303.25 K | 4.12e-05
in sec-butanol, 308.24 K | 4.36e-05
in sec-butanol, 313.15 K | 4.84e-05
in sec-butanol, 318.12 K | 6.19e-05
in sec-butanol, 323 K | 7.52e-05
in sec-butanol, 327.33 K | 9.18e-05
in sec-butanol, 330.85 K | 0.00011
in sec-butanol, 335.57 K | 0.000133
in sec-butanol, 340.5 K | 0.000165
in water, 293.15 K | 0.00421
in water, 298.12 K | 0.00516
in water, 303.15 K | 0.00636
in water, 308.22 K | 0.008
in water, 313.35 K | 0.0101
in water, 318.28 K | 0.0127
in water, 323.35 K | 0.0161
in water, 328.24 K | 0.0199
in water, 333.35 K | 0.0246
in water, 338.21 K | 0.0303
in water, 343.3 K | 0.0371
